One compound from patent US4874856A, “3-(substituted)propenyl-7-(aminothiazolylacetamido) ceph-3-em-4-carboxylic acids and esters thereof” (Bristol-Myers Company, priority 1987, dated 1989) can be followed below.

The test system of assay [1] is Penicillin(PC)sensitive S. aureus. The assay can be described thus: In vitro MIC, two-fold serial agar dilution in Mueller-Hinton agar, Gp-Ia strains. The assay is classed as cell-based. Conditions: Staphylococcus aureus; GpIa, 5 strains; read-out: Geometric mean of MIC, GpIa. The method, then:
The in vitro antibacterial activity of the parent cephalosporanic acids of Formula I wherein R^4 is hydrogen is shown in Table 1 in terms of geometric mean of the Minimum Inhibitory Concentrations (MIC's) which were determined by the two-fold serial agar dilution method in Mueller-Hinton agar against 25 strains of test organisms in five groups.
Gp-Ia: Penicillin(PC)sensitive S. aureus
(In general: In agar dilution, organisms are placed on agar that contains the substance at set levels.)

For assay [2], the system named is clinically important pathogens. The assay is described as follows: Comparison of in vitro antibacterial activities of Compound 29 and FK-482 (Table 6). The assay is classed as cell-based. Conditions: Thirty-seven organisms. The text has this: Table 6 is a comparison of the in vitro antibacterial activities of Compound 29 and the vinyl homolog thereof FK-482 against clinically important pathogens. Thirty-seven organisms were more than 4-fold more susceptible to Compound 29 than to FK-482. FK-482 has the following formula and is described by Takaya, et al. in U.S. Pat. No. 4,559,334 patented Dec. 17, 1985 (filed Oct. 20, 1983). [drawing 14]
Mueller-Hinton agar Inoculum size; 10^6 cells/ml

Values after ≈ are worked out from the molar mass of the structure shown.

Turning to `C/C=C\C1=C(C(=O)O)N2C(=O)[C@@H](NC(=O)/C(=N\O)c3csc(N)n3)[C@H]2SC1` [Compound 29, 7β-[(Z)-2-(2-aminothiazol-4-yl)-2-(hydroxyimino)acetamido]-3-[(Z)-prop-1-en-1-yl]-3-cephem-4-carboxylic acid], the MIC in assay [1] was 0.2 µg/mL (≈ 0.488 µM). For the same compound, the “more susceptible to Compound 29 than to FK-482” value in assay [2] is “more than 4 fold”.

The MIC is the lowest concentration found to suppress growth.
